Measurements: ChEMBL document CHEMBL1151578, “Benzopyran-4-carboxamide K+ channel openers” (Bioorg Med Chem Lett, 1993)

Experiments:
[1] = species on record: Rattus norvegicus; experiment: Relaxation of rat aorta smooth muscle precontracted with 30 mM KCl (Negative logarithm of molar concentration required); type: functional, organism-based; details: Muscle tissue
[2] = species on record: Rattus norvegicus; experiment: Relaxation of rat aorta smooth muscle; type: functional, Muscle tissue

Row | Structure (SMILES) | EC50 [1] [nM] | Intrinsic activity [2] [%]
1 | CC1(C)C=C(C(=O)NCCC#N)c2cc([N+](=O)[O-])ccc2O1 | – | 73.1
2 | CC(N/C(=N\C#N)Nc1ccncc1)C(C)(C)C (stereo unspecified) [PINACIDIL ANHYDROUS] | – | 91.9
3 | CC(C)NC(=O)C1=CC(C)(C)Oc2ccc([N+](=O)[O-])cc21 | 186 | 77.6
4 | CNC(=O)C1=CC(C)(C)Oc2ccc(C#N)cc21 | – | 66.6
5 | CC1(C)C=C(C(=O)NCCO)c2cc([N+](=O)[O-])ccc2O1 | 182 | 71.8
6 | CNC(=O)C1=CC(C)(C)Oc2ccc([N+](=O)[O-])cc21 | – | 61
7 | CC1(C)C=C(C(N)=O)c2cc([N+](=O)[O-])ccc2O1 | 363 | 79.8

Continued, in another order:

Row | EC50 [1] [nM] | Structure (SMILES) | Intrinsic activity [2] [%]
8 | 5.75 | CCCNC(=O)C1=CC(C)(C)Oc2ccc([N+](=O)[O-])cc21 | 74.1
9 | 7.94 | C#CCNC(=O)C1=CC(C)(C)Oc2ccc([N+](=O)[O-])cc21 | 80.2
10 | 20.4 | CC1(C)C=C(C(=O)NCCF)c2cc([N+](=O)[O-])ccc2O1 | 81.6
11 | 6.61 | CC1(C)C=C(C(=O)NCC2CC2)c2cc([N+](=O)[O-])ccc2O1 | 89.3
12 | 32.4 | CC1(C)C=C(C(=O)NC2CC2)c2cc([N+](=O)[O-])ccc2O1 | 78
13 | 21.9 | CCCCNC(=O)C1=CC(C)(C)Oc2ccc([N+](=O)[O-])cc21 | 83.2
14 | 4.57 | CCNC(=O)C1=CC(C)(C)Oc2ccc([N+](=O)[O-])cc21 | 80.5
15 | 170 | CC1(C)Oc2ccc(C#N)cc2[C@H](N2CCCC2=O)[C@H]1O (single isomer, unassigned) [(-)-CROMAKALIM] | 74.7
